Consider ten compounds from ChEMBL document CHEMBL1201862, “PubChem BioAssay data set” (2004).

Test systems include SF-295; SF-539; IGROV-1; SR; UACC-257; OVCAR-4; UO-31; SF-268; SN12C; ACHN; OVCAR-3; HOP-62; M14; OVCAR-8; HT-29; OVCAR-5; HCT-15; LOX IMVI; A498.
Holding throughout (assay): growth of human tumour cells (NCI), 48 h

Each structure is given as a SMILES string.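 1) Cells in 96-well plates. 2) Compound, 48 h, 5 concentrations. 3) Linear interpolation between surrounding doses. 4) Unreached endpoint = highest concentration. GI50 = concentration required for 50% inhibition of growth.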 Calls of active or inactive are those of the source. No stated cut-off is given here; in the data, active = GI50 up to about 1.1 µM and inactive = higher.

For `CN(C)c1nc(N)c(C#N)c(C#N)c1C#N`, the GI50 is > 10 µM (inactive) in the assay on SF-295; > 10 µM (inactive) with SF-539; > 6 µM (inactive) in the assay on IGROV-1; 3.42 µM (inactive) in the assay on SR; > 10 µM (inactive) in the assay on UACC-257; > 10 µM (inactive) in the assay on OVCAR-4. Further, the GI50 in the assay on UO-31, with SF-268, in the assay with SN12C, with ACHN, in the assay with OVCAR-3 and in the assay on HOP-62 was > 10 µM (inactive) in each case. In addition, the GI50 in the assay with M14 was > 10 µM (inactive); in the assay on OVCAR-8 it was > 10 µM (inactive); with HT-29, > 10 µM (inactive); with OVCAR-5, > 10 µM (inactive); with HCT-15, over 10 µM; in the assay on LOX IMVI, > 10 µM (inactive). Moreover, the GI50 in the assay with A498 is > 10 µM (inactive).
As for `O=S(=O)(c1cccc(C(F)(F)F)c1)N1c2ccccc2-n2cccc2C1c1cccnc1` (stereo not given), the GI50 was 71.8 µM (inactive) with SF-295; 28 µM (inactive) in the assay with SF-539; 40.6 µM (inactive) in the assay with IGROV-1; 6.71 µM (inactive) with SR; > 36.4 µM (inactive) in the assay with UACC-257; 24.8 µM (inactive) with OVCAR-4. Moreover, the GI50 was 17.7 µM (inactive) with UO-31; > 43.2 µM (inactive) in the assay on SF-268; > 42.4 µM (inactive) in the assay with SN12C; > 46.5 µM (inactive) with ACHN; > 35.8 µM (inactive) in the assay with OVCAR-3; > 43.6 µM (inactive) in the assay on HOP-62. Moreover, the GI50 in the assay on M14 is 16.2 µM (inactive); in the assay with OVCAR-8, 44.3 µM (inactive); in the assay with HT-29 it was 18.1 µM (inactive); with OVCAR-5, > 50.5 µM (inactive); in the assay with HCT-15, 22 µM; in the assay on LOX IMVI it was 35.5 µM (inactive). Further, the GI50 in the assay on A498 is 23.3 µM (inactive).
For the compound `CC(C(O)c1ccccc1)[N+](=O)[O-]` (stereo not given), the GI50 in the assay with SF-295 is 28.5 µM (inactive); in the assay with SF-539, 20.3 µM (inactive); with IGROV-1, 14.8 µM (inactive); with SR, 2.68 µM (inactive); with UACC-257, 16.8 µM (inactive); with OVCAR-4, 24.7 µM (inactive). For the same compound, the GI50 with UO-31 is 7.69 µM (inactive); in the assay on SF-268, 31.5 µM (inactive); in the assay on SN12C it was 18.1 µM (inactive); with ACHN, 16.3 µM (inactive); in the assay on OVCAR-3, 4.91 µM (inactive); in the assay with HOP-62, 25.3 µM (inactive). Moreover, the GI50 is 6.43 µM (inactive) with M14; 16.4 µM (inactive) in the assay on OVCAR-8; 27.2 µM (inactive) in the assay on HT-29; 24.1 µM (inactive) with OVCAR-5; 11.5 µM in the assay on HCT-15; 2.29 µM (inactive) in the assay on LOX IMVI. Also, in the assay on A498, the GI50 is 17.5 µM (inactive).
Consider `CC(C)/C(Cl)=N/OC(NC(=O)Nc1ccc(Cl)c(Cl)c1)(C(F)(F)F)C(F)(F)F`, for which the GI50 was 19.8 µM (inactive) in the assay on SF-295; 17.4 µM (inactive) in the assay on SF-539; 16.2 µM (inactive) with IGROV-1; 3.56 µM (inactive) with SR; 13.2 µM (inactive) with UACC-257; 13 µM (inactive) in the assay with OVCAR-4. In addition, the GI50 with UO-31 is 17.3 µM (inactive); in the assay on SF-268, 18.2 µM (inactive); with SN12C, 11 µM (inactive); with ACHN, 12.2 µM (inactive); in the assay on OVCAR-3, 5.9 µM (inactive); in the assay on HOP-62, 21.6 µM (inactive). Also, the GI50 in the assay with M14 was 5.65 µM (inactive); in the assay on OVCAR-8 it was 17.7 µM (inactive); with HT-29 it was 15.4 µM (inactive); in the assay with OVCAR-5, 19.7 µM (inactive); in the assay with HCT-15 it was 13.2 µM; in the assay on LOX IMVI, 4.51 µM (inactive). For the same compound, in the assay on A498, the GI50 was 18.2 µM (inactive).
Regarding `[O-][N+]1=[N+]([O-])[C@@H](c2ccccc2)[C@H]1c1ccccc1`, the GI50 with SF-295 was 19.9 µM (inactive); with SF-539, 18.4 µM (inactive); with IGROV-1, 12.6 µM (inactive); with SR, 18.4 µM (inactive); with UACC-257, 13.1 µM (inactive); in the assay with OVCAR-4, 25 µM (inactive). Moreover, the GI50 was 14.8 µM (inactive) in the assay with UO-31; 24.9 µM (inactive) in the assay on SF-268; 18 µM (inactive) in the assay on SN12C; 17.6 µM (inactive) in the assay on ACHN; 15.2 µM (inactive) in the assay with OVCAR-3; 18.7 µM (inactive) in the assay on HOP-62. The GI50 with M14 is 15.8 µM (inactive); in the assay with OVCAR-8, 16.8 µM (inactive); in the assay with HT-29, 18.3 µM (inactive); with OVCAR-5, 19.9 µM (inactive); in the assay with HCT-15, 11.4 µM; in the assay on LOX IMVI it was 15.3 µM (inactive). For the same compound, in the assay with A498, the GI50 is 27.1 µM (inactive).
As to `O=[N+]([O-])c1ccc(-n2nc3ccc4c(no[n+]4[O-])c3[n+]2[O-])c([N+](=O)[O-])c1`, the GI50 in the assay with SF-295 was 4.53 µM (inactive); in the assay on SF-539 it was 6.15 µM (inactive); in the assay with IGROV-1, 1.71 µM (inactive); in the assay with SR, 1.91 µM (inactive); with UACC-257, 1.75 µM (inactive); in the assay with OVCAR-4 it was 1.68 µM (inactive). The GI50 in the assay with UO-31 was 5.27 µM (inactive); in the assay on SF-268, 5.05 µM (inactive); with SN12C, 2.56 µM (inactive); with ACHN, 2.45 µM (inactive); with OVCAR-3, 2.47 µM (inactive); with HOP-62 it was 3.77 µM (inactive). Moreover, the GI50 is 1.59 µM (inactive) in the assay on M14; 2.4 µM (inactive) in the assay on OVCAR-8; 4.69 µM (inactive) in the assay with HT-29; 6.41 µM (inactive) with OVCAR-5; 2.69 µM in the assay with HCT-15; 1.77 µM (inactive) in the assay with LOX IMVI. Besides, the GI50 in the assay on A498 is 5.45 µM (inactive).
`CCC(=O)N(c1ccccc1)C(C)CN1CCC(O)(c2ccccc2)CC1` (stereo not given): the GI50 in the assay with SF-295, in the assay with SF-539, with IGROV-1, in the assay with SR, in the assay with UACC-257 and with OVCAR-4 was > 100 µM (inactive) each time. The GI50 in the assay with UO-31, with SF-268, in the assay on SN12C, in the assay with ACHN, with OVCAR-3 and in the assay with HOP-62 was > 100 µM (inactive) in each case. Moreover, the GI50 in the assay on M14 was > 100 µM (inactive); with OVCAR-8, > 100 µM (inactive); with HT-29, 58.3 µM (inactive); with OVCAR-5 it was > 100 µM (inactive); in the assay with HCT-15, over 100 µM; with LOX IMVI it was > 100 µM (inactive). In addition, in the assay on A498, the GI50 is > 100 µM (inactive).
As for `Cc1c(N)nc([C@H](CC(N)=O)NC[C@H](N)C(N)=O)nc1C(=O)N[C@H](C(=O)N[C@H](C)[C@@H](O)CC(=O)N[C@H](C(=O)NC(O[C@@H]1O[C@@H](C)[C@@H](N)[C@@H](O)[C@H]1O)C(O)c1nc(-c2nc(C(=O)NCCC[S+](C)C)cs2)cs1)[C@@H](C)O)[C@H](O[C@@H]1O[C@@H](CO)[C@@H](O)[C@H](O)[C@@H]1O[C@H]1O[C@H](CO)[C@@H](O)[C@H](OC(N)=O)[C@@H]1O)c1c[nH]cn1` (stereo not given in full), the GI50 was 5.46 µM (inactive) with SF-295; 2.2 µM (inactive) in the assay on SF-539; 33.3 µM (inactive) in the assay on IGROV-1; 0.0109 µM (active) with SR; > 100 µM (inactive) with UACC-257; > 100 µM (inactive) in the assay with OVCAR-4. Further, the GI50 with UO-31 is 26.7 µM (inactive); in the assay with SF-268, 39.2 µM (inactive); with SN12C, > 100 µM (inactive); with ACHN it was 0.773 µM (active); with OVCAR-3, 95.3 µM (inactive); in the assay with HOP-62, 5.18 µM (inactive). In addition, the GI50 in the assay on M14 was > 100 µM (inactive); with OVCAR-8, 48.9 µM (inactive); in the assay with HT-29, 82.8 µM (inactive); with OVCAR-5, > 100 µM (inactive); with HCT-15, 34.4 µM; with LOX IMVI it was 15.2 µM (inactive). Besides, the GI50 in the assay on A498 was 67.1 µM (inactive).
Regarding `CC1(C)CCC(C)(C)c2cc(C(=O)Nc3ccc(C(=O)O)cc3)ccc21`, the GI50 with SF-295 was 22 µM (inactive); in the assay with SF-539, 13.4 µM (inactive); in the assay on IGROV-1, 22.7 µM (inactive); in the assay with SR, 15 µM (inactive); in the assay on UACC-257, 28.2 µM (inactive); in the assay with OVCAR-4, 20.9 µM (inactive). For the same compound, the GI50 is 14.9 µM (inactive) in the assay on UO-31; 27.3 µM (inactive) with SF-268; 31.8 µM (inactive) in the assay with SN12C; 21.5 µM (inactive) in the assay with ACHN; 17.9 µM (inactive) with OVCAR-3; 18.7 µM (inactive) in the assay with HOP-62. Further, the GI50 is 19.6 µM (inactive) in the assay on M14; 30.5 µM (inactive) in the assay with OVCAR-8; 20.7 µM (inactive) in the assay on HT-29; 32.3 µM (inactive) with OVCAR-5; 22.7 µM in the assay on HCT-15; 24.4 µM (inactive) with LOX IMVI. For the same compound, the GI50 in the assay on A498 is 31.7 µM (inactive).
As to `COc1cc2c(cc1O)Cc1c-2[n+](C)cc2cc(OC)c(OC)cc12`, the GI50 in the assay with SF-295 is 7.89 µM (inactive); in the assay on SF-539, 1.82 µM (inactive); with IGROV-1 it was 52.7 µM (inactive); in the assay with SR, 0.118 µM (active); in the assay with UACC-257, > 68.9 µM (inactive); with OVCAR-4 it was > 63.2 µM (inactive). Moreover, the GI50 in the assay with UO-31 was 8.53 µM (inactive); with SF-268, 0.472 µM (active); in the assay with SN12C, 4.8 µM (inactive); in the assay on ACHN, 1.5 µM (inactive); in the assay with OVCAR-3, 29.7 µM (inactive); in the assay on HOP-62 it was 6.61 µM (inactive). In addition, the GI50 in the assay with M14 was 7.19 µM (inactive); in the assay with OVCAR-8, 2.72 µM (inactive); in the assay on HT-29, > 83 µM (inactive); in the assay on OVCAR-5 it was > 100 µM (inactive); in the assay on HCT-15 it was 24.4 µM; with LOX IMVI, 5.94 µM (inactive). Also, in the assay on A498, the GI50 was > 64.1 µM (inactive).
